# Laboratory results taken from patent publication US11124485B2, “Deoxyuridine triphosphatase inhibitors containing cyclopropano linkage” (CV6 Therapeutics (NI) Limited, priority 2015, dated 2021).
# How the values were obtained:
# [1] = tested on: colorectal (HCT116 and SW620) cell line models; assay: MTS growth inhibition assay; assay type: cell-based; conditions: increasing concentrations of 5-FU between 0 and 100 μmol/L; both colorectal cancer cell lines
# Protocol: The Cell Titer AQueous MTS assay (Promega) is carried out according to the manufacturers guidelines. […] The combination effect is determined by the combination index (CI) method utilizing Calcusyn software (Biosoft, Ferguson, Mo.). Fraction affected (FA) is calculated from the percent growth inhibition: FA=(100−% growth inhibition)/100.
# Test compounds are evaluated for their antitumor activity in colorectal cancer cells using the MTS growth inhibition assay. HCT116 and SW620 cells are exposed to increasing concentrations of each agent for 72 hours and growth inhibition is directly compared to vehicle-treated controls. The NSCLC cell lines A549 and H1299 are exposed to increasing concentrations of each agent for 72 hours and growth inhibition is directly compared to vehicle-treated controls.
# MTS growth inhibition assays are performed to evaluate the effectiveness of the test compounds alone and in combination with the fluoropyrimidine thymidylate synthase (TS) inhibitor 5-fluorouracil (5-FU) at inhibiting the growth of colorectal (HCT116 and SW620) cell line models. […] Simultaneous treatment with increasing concentrations of 5-FU and a test compound at fixed concentrations of 25 μmol/L is determined.
# [2] = tested on: colorectal (HCT116), breast (MCF-7) and non-small cell lung (H1299, A549, H358 and H460) cell line models; assay: Colony forming assay; assay type: cell-based; conditions: increasing concentrations of FUdR between 0.5 and 2.5 μmol/L; all cell lines evaluated
# Protocol: Colony forming assay showing the ability of colon (SW620, HCT116), non-small cell lung (A549, H460, H1299 and H358) and breast (MCF7) cancer cells to survive and proliferate following transient 24 hour exposure to test compounds, FUdR and combinations are determined. Specifically, cells are seeded at densities between 50 and 100 cells/well in 24-well plates. Twenty-four hours later, cells are treated with increasing concentrations of a test compound, a fixed dose of FUdR and combinations of these. After 24 hours, drug is removed, cells are rinsed and allowed to outgrow for 10-14 days. At the conclusion of the outgrowth, cells are fixed in 60% ice cold methanol and stained with 0.1% crystal violet, scanned and counted. Data is presented as percentage of untreated controls (mean±SD). Fraction affected and combination indexes are calculated according to the method of Chou and Talalay where <1 is indicative of a synergistic drug interaction.
# Colony forming assays are performed to evaluate the effectiveness of test compounds alone and in combination with the fluoropyrimidine thymidylate synthase (TS) inhibitor fluorodeoxyuridine (FUdR) at reducing cancer cell viability in colorectal (HCT116), breast (MCF-7) and non-small cell lung (H1299, A549, H358 and H460) cell line models. […]
structure (smiles),measurement,setting,value
"O=c1[nH]cc(F)c(=O)[nH]1 [Compound 5-FU, 5-fluorouracil]",growth inhibition,[1],dose-dependent increases in growth inhibition
"O=c1[nH]c(=O)n([C@H]2C[C@H](O)[C@@H](CO)O2)cc1F [FUdR, fluorodeoxyuridine]",colonies formed,[2],dose-dependent decreases in colonies formed
